Experimental data from ChEMBL document CHEMBL4613309, “Identification of 2-(4-(Phenylsulfonyl)piperazine-1-yl)pyrimidine Analogues as Novel Inhibitors of Chikungunya Virus” (ACS Med Chem Lett, 2020).

Key:
[1] = test system: Chikungunya virus; experiment: microbe, parasite or virus in culture
[2] = in vitro; conditions: chlorocebus sabaeus, Vero cells

SMILES: CCNc1nc(C)cc(N2CCN(C(=O)c3ccc(Cl)cc3)CC2)n1
- EC50 [1]: 32 µM
- EC90 [1]: 108 µM
- CC50 at 120 h [2]: 202 µM
